Assays:
panel of 442 kinases [1] = molecular target: T1, panel of 442 kinases (Homo sapiens, UniProt Q9UF33); assay type: binding; conditions: Compound Concentration 10 µM
T1 sequence (Q9UF33 23-1036): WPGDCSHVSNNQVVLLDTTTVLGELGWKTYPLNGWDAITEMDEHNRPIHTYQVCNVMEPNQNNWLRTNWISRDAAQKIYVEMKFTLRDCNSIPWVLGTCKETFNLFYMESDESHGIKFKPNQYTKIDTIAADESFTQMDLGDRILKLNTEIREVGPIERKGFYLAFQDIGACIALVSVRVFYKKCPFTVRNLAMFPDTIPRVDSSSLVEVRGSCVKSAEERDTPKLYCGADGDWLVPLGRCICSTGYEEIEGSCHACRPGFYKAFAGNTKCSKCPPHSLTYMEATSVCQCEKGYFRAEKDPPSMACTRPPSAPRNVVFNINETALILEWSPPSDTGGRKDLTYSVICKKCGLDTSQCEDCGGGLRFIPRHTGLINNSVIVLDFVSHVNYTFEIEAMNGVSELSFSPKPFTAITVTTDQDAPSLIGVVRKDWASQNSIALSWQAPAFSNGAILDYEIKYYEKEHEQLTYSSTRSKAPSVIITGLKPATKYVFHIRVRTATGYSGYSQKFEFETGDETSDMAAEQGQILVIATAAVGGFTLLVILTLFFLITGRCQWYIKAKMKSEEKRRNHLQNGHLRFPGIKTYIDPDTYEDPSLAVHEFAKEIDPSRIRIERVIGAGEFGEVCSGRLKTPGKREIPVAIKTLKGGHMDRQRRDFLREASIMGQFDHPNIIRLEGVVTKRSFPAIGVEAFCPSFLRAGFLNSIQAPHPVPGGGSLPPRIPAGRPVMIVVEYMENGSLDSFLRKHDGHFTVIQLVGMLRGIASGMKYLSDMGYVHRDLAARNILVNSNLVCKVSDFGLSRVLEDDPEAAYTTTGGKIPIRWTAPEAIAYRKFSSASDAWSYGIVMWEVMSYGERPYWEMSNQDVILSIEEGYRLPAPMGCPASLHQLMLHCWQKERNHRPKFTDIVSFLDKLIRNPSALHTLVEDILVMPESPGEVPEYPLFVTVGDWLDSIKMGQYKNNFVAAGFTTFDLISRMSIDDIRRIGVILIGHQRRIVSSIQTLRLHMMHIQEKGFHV
Source text: (§1) We assessed the selectivity of members of this scaffold using the KINOMEscan methodology across a near comprehensive panel of 442 kinases [[18,27]].

panel of 442 kinases [2] = molecular target: T2, panel of 442 kinases (Homo sapiens, UniProt P00533, L861Q); assay type: binding; conditions: Compound Concentration 10 µM
T2 construct: purchased KINOMEscan
T2 sequence (P00533 25-1210 L861Q): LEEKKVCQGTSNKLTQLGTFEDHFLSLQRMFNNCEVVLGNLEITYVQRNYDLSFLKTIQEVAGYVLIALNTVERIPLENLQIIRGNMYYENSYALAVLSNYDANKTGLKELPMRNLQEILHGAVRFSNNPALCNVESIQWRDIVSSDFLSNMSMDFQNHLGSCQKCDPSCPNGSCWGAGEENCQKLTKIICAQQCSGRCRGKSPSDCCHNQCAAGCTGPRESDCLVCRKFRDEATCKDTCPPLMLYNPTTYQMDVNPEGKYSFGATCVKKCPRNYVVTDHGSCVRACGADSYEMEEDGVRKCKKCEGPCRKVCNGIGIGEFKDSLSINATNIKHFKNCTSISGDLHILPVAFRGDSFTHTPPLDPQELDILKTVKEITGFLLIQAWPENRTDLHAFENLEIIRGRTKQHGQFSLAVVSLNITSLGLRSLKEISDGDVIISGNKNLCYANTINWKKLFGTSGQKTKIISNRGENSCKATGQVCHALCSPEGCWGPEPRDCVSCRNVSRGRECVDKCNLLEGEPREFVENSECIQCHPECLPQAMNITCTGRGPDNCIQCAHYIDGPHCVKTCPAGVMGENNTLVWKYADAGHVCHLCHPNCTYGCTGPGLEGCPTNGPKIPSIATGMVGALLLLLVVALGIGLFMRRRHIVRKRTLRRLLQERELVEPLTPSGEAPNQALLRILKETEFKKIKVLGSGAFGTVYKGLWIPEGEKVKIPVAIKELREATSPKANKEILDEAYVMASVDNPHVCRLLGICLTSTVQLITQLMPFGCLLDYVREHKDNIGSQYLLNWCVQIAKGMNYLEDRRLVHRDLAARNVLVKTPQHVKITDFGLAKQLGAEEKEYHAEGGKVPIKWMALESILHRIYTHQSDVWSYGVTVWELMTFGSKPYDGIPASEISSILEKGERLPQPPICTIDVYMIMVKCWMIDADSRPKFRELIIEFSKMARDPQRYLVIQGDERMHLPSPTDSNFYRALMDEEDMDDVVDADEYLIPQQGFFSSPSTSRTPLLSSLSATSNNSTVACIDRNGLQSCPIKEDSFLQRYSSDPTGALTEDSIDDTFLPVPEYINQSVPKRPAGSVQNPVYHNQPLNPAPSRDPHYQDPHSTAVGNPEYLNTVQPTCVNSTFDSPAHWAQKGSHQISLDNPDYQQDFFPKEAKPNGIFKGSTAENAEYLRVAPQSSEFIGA
Source text: as §1

SMILES	KINOMEscan: EPHA6 (panel of 442 kinases [1])	KINOMEscan: EGFR(L861Q) (panel of 442 kinases [2])
COc1cc(C(=O)N2CCC(N3CCN(C)CC3)CC2)ccc1Nc1ncc2c(n1)N(C)c1ccccc1C(=O)N2C [15 (LRRK2-IN-1)]	89	100
COc1cc(C(=O)N2CCC(N3CCN(C)CC3)CC2)ccc1Nc1ncc2c(n1)N1CCc3cccc(c31)C(=O)N2C [Compound 24]	97	82
COc1cc(C(=O)N2CCC(N3CCN(C)CC3)CC2)ccc1Nc1ncc2c(n1)N(C1CCCC1)c1ccccc1C(=O)N2C [Compound 25, 11-cyclopentyl-2-((2-methoxy-4-(4-(4-methylpiperazin-1-yl)piperidine-1-carbonyl)phenyl)amino)-5-methyl-5H-benzo[e]pyrimido[5,4-b][1,4]diazepin-6(11H)-one]	100	89
CCOc1cc(C(=O)N2CCC(N3CCN(C)CC3)CC2)ccc1Nc1ncc2c(n1)N(C1CCCC1)c1ccccc1C(=O)N2C [Compound 26]	100	100

Reference: publication PMC3914206
